Tests used:
[1] = system: S. epidermidis biofilm; assay: Inhibition of biofilm formation in petri dishes, S. epidermidis; assay type: cell-based; settings: 0.32 ug/ml; percent reduction of control
Protocol: (§1) Biofilm formation in petri dishes was measured using the following protocol as a compromise between flow cells and microtitire plate based assays. The method increases the number of replicates (relative to flow cells) that can be tested while still generating a biofilm that has typical structures, such as microcolonies, which are important as differentiated structures within the biofilm. The method consists of placing a surface, such as a glass slide (for unattached compounds) or a modified plastic coupon (for covalently attached compounds) on the bottom of a sterile petri dish and adding growth medium. The bacteria are inoculated into the dish and allowed to incubate at the appropriate temperature at 50 rpm. The medium is replaced at 24 h and allowed to incubate a further 24 h, after which time, the slides are removed and rinsed to remove loosely attached cells. For monitoring biofilm formation on glass slides, the cells are either stained with a suitable fluorescent stain and are visualised using the confocal microscope and the biofilm (as % surface coverage) is quantified, or the biofilm is stained with crystal violet, washed thoroughly to remove excess stain, and subsequently destained and the absorbance at […] is measured to determine the amount of biofilm, as a function of crystal violet staining.

[2] = system: Staphylococcus epidermidis; assay: S. epidermidis growth inhibition (OD600 growth curves); assay type: cell-based; settings: concentration of compound that significantly alters growth rate or final growth yield
Protocol: The growth inhibition of Staphylococcus epidermidis by the compounds of the present invention was determined by growing S. epidermidis in 96 well microtitre plates in Trypticase Soy Broth plus 0.5% glucose in a Wallac Victor2 microplate reader. Each compound was added to the wells at different concentrations and a no-compound control and a set of blank wells were also used. The OD600 was measured hourly.

[3] = system: LasR; assay: LasR assay (unstable gfp fused to the elastase promoter); assay type: cell-based; settings: Pseudomonas aeruginosa, read-out: LasR (conc)
Protocol: Compounds of the present invention were also assayed using a LasR assay. The LasR assay provides a measurement of quorum sensing inhibition activity. The higher the percentage inhibition. […] In the LasR assay, an unstable gfp has been fused to the elastase promoter, so that the amount of Gfp is regulated by the QS system. The plasmid is put into Pseudomonas aeruginosa which makes its own AHL signals. The assay is performed by adding the compounds to be tested to the system at the beginning of the experiment, at different concentrations. Gfp expression is measured at different times during growth, ending at the 24 h time point. The percentage fluorescence was determined at the time point when the fluorescence reached its maximum in the control, usually around 11-12 h after inoculation.

[4] = system: V. fischeri luxRI system; assay: N-acylated homoserine lactone (AHL) quorum sensing assay, GFP reporter strain; assay type: cell-based, E. coli
Protocol: Compounds of the present invention were compared to compounds of the prior art in order using an AHL-quorum sensing assay which utilises a reporter strain that expresses Green Fluorescent Protein (GFP) in the presence of AHL signals. The assay is performed by measuring GFP output in the presence of the compound to be measured and comparing the output to a control. By using multiple samples at varying concentrations of compound and AHL, an inhibition index of compound activity can be generated. The inhibition index used in the present example is the relative amount of compound required to reduce GFP expression to 40% of the control. The inhibition index is termed AIC40. Lower values of AIC40 represent better inhibitors of the AHL quorum sensing system.
The reporter strain of bacterium used in this assay is E. coli into which the V. fischeri luxRI system has been engineered. A gfp gene is fused to the QS controlled luxI promoter as is described in (Andersen et al., 2001, and Andersen et al, 1998).
Measurement of AIC40 (ID40 at 3 nM OHHL)
Determination of the activity of compounds using the E. coli based luxRI construct was performed as follows.
In a 15 mL plastic tube, mix 3 mL of o.n. culture of the lux reporter strain with 12 mL fresh medium, incubate at 37° C. Label six tubes, 10, 20, two 50 and two 100. To each of the tubes, add OHHL (3-oxohexanoyl homoserine lactone) to a final concentration of 10, 20, 50, or 100 nM respectively in the AB medium (add enough medium to distribute across the appropriate number of wells). To the first row of the microplate (row A), add 200 ul of the OHHL/AB mixture. To the remaining rows (B-H) add 100 ul of the OHHL/AB mixture. To the first row (A) add compounds to be tested to the 200 ul mixture of OHHL/AB. Make a dilution series in the first 7 rows by transferring 100 μL from wells in row 1 to wells in row 2 and so on. Discard the remaining 100 μL from row 7. Add 100 μL diluted lux monitor to each well. Incubate the plate 2 hours at 37° C. and measure green fluorescence using the “Victor” plate reader.
Calculate ID40 for each column. To do this, calculate the relative activity in each well. […] Make a plot for each concentration of OHHL vs. the range of compound concentrations used. Calculate the amount of compound needed to lower the relative activity to 40%, this is termed inhibiting dose 40%, ID40. For each compound an inhibition index, AIC40, is found as follows: plot ID40 against its respective AHL concentration; AIC40 is the slope of the best straight line through the plotted points and origin.
The methodology for this assay is set out in 2(a) above.

[5] = system: P. aeruginosa biofilm; assay: Inhibition of biofilm formation in petri dishes, P. aeruginosa; assay type: cell-based; settings: 1 ug/ml; percent reduction of control
Protocol: as §1

[6] = system: E. coli biofilm; assay: Inhibition of biofilm formation in petri dishes, E. coli; assay type: cell-based; settings: 1.5 ug/ml; percent reduction of control
Protocol: as §1

With `C=C1NC(=O)C=C1c1ccc(Br)cc1` [drawing 25] as the compound, how does the S. epidermidis biofilm [1] read?
The S. epidermidis biofilm was 41% (0.32 ug/ml).

And the minimal effective concentration [2]?
Its minimal effective concentration is 1 µg/mL.

And the inhibition at 50 µg/mL [3]?
The inhibition at 50 µg/mL was 45%.

And the “ID40 at 3 nM OHHL” value ([4]; Table 4, number in parentheses, amount of compound lowering relative activity to 40%)?
Its value is 21 nM.

What about the AIC40 ([4]; Table 4 comparative results, first number of the cell, lower = better) of the same compound?
The AIC40 was 0.49.

What about the AIC40 ([4]; inhibition index: slope of ID40 against AHL concentration, lower = better inhibitor, NE = no effect) of the same compound?
The AIC40 was 0.49.

What about the P. aeruginosa biofilm [5] of the same compound?
Its P. aeruginosa biofilm is 32% (1 ug/ml).

And the E. coli biofilm [6]?
The E. coli biofilm was 93% (1.5 ug/ml).

From US9586901B2, “Lactams” (UNILEVER PLC, priority 2006, dated 2017)
